Source: publication PMC8921975 (Journal of the American Chemical Society, 2020)
Entries after “also recorded” stand apart in the source; their conditions may differ. Positions of bridges follow the written chain, without caps; N, C: chain ends. Non-standard residues stand in square brackets, D forms with d. No end group written: not given here. pGlu = O=C1CC[C@@H](C(=O)O)N1

What was measured:
[1] = test system: N-terminal truncated form of TDP1 (Δ147TDP1); format: biochemical, human; settings: N-terminally truncated TDP1 lacking regulatory domain (Δ1–147); FRET assay, PBS pH 7.4, 80 mM KCl, 1 mM TCEP
full-length TDP1 = full-length TDP1 (Homo sapiens, UniProt Q9NUW8); test: Steady-state; format: biochemical
Chain of full-length TDP1 (Q9NUW8 whole entry): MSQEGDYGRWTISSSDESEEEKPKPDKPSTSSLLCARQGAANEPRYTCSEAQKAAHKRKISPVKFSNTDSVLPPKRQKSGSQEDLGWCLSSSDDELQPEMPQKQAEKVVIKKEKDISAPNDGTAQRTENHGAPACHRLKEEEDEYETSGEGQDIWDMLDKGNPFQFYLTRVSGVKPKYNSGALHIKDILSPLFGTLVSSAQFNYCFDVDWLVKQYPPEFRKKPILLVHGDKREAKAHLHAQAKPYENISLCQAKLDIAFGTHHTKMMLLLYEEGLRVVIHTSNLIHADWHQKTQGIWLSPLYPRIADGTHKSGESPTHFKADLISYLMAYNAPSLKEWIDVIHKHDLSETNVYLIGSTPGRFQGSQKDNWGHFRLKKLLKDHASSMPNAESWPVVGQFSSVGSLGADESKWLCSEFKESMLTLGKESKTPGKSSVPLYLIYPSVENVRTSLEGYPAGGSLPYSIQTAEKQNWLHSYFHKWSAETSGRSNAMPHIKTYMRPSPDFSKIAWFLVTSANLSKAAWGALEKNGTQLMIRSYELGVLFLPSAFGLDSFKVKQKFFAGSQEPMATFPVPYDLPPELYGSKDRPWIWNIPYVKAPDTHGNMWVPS

TDP1 = TDP1 inhibitory activity of Axinella-derived peptides; format: biochemical; settings: Figure S2
[2] = full-length TDP1 0.5 nM, 0.01–3 μM FRET substrate, recifin A 0, 0.2, 0.5, 1, 2 μM, PBS pH 7.4, 80 mM KCl, 1 mM TCEP, quadruplicate, 1 h
[3] = full-length TDP1, Figure S10 (Km and Vmax ratios)

With “[pGlu]EAFCYSDRFCQNYIGSIPDCCFGRGSYSFELQPPPWECYQC (disulfide 5-21, 11-39, 22-42) [recifin A]” the “inhibition of Δ147TDP1 enzymatic activity (in words)” value [1] was “not affecting the activity of a truncated catalytic domain of TDP1; also recorded: only a minimal effect; also recorded: inhibited full-length TDP1 but not N-terminally truncated TDP1 (Δ147TDP1); also recorded: does not affect the enzymatic activity of truncated TDP1; also recorded: unaffected by recifin A”, the “Km for the substrate, effect of recifin A (in words)” value (full-length TDP1; [2]) was “increased the Km for the substrate” and the “Vmax, effect of recifin A (in words)” value (full-length TDP1; [2]) was “modest increase of the observed Vmax value; also recorded: increased the Vmax of the enzyme”. The “recifin A-dependent increase in the Km for the substrate” value (full-length TDP1; [3]) was “approximately 6 fold”, the “recifin A-dependent increase of observed Vmax” value (full-length TDP1; [3]) was “approximately 1.6 fold” and the “TDP1 inhibitory activity relative to the other Axinella peptides” value (TDP1) was “most active peptide”.
